Source: patent US20230286929A1, “AROMATIC BRIDGED RING AMIDE DERIVATIVES FOR THE TREATMENT AND PROPHYLAXIS OF HEPATITIS B VIRUS INFECTION” (Hoffmann-La Roche Inc., priority 2020, published 2023)

Experiments:
Type in all cases: cell-based
[1] = test system: HBsAg; test: PHH HBV natural infection assay, HBsAg (alphalisa); conditions: Hepatitis B virus, Hepatocyte, 72 h, read-out: HBsAg IC50
Experimental: (§1) Detailed procedures regarding primary human hepatocyte (PHH) HBV natural infection assay are described as below. One tube of frozen PHH (10 million cells) is thawed in 37° C. water bath and then transferred to 20 mL of PHH thawing medium (Sigma, InVitroGRO HT Medium, Cat. S03319) with gently mixing. The cells were then centrifuged at […] for 5 min, the supernatant was discarded and the tube was refilled with 25 mL of PHH plating medium (Sigma, InVitroGRO CP Medium, Cat. 503317). The tube was shaken very gently to re-suspend all cells. 50 μl of cells were transferred to each well 384-well collagen I coated plate with appropriate liquid handling equipment, e.g. Integra VIAFLO384 or Agilent Bravo. The cells were then cultured for 24 hours in a cell incubator. For HBV infection, after PHH attachment on the culture plate, the plating medium was removed and replenished with PHH culture medium containing HBV virus. The PHH culture medium was prepared with Dulbecco's Modified Eagle Medium (DMEM)/F12 (1:1 in volume ratio) containing 10% fetal bovine serum (Gibco, Cat. 10099141), […] (Gibco, Cat. PHG03I1L), 20 ng/mL dexamethasone (Sigma, Cat. D4902-100 mg), 250 ng/mL human recombinant insulin (Gibco, Cat. 41400045) and 100 U/mL penicillin. HBV virus at 200 genome equivalent (GE) per cell with 4% PEG8000 (Sigma, Cat. P1458) containing culture medium were added to the PHH culture medium for infection. The cells were then cultured for 24 hours in cell incubator. Then the cell culture supernatant was removed. The HBV-infected PHH were cultured with sandwich culture method with PHH culture medium containing 1% DMSO and 0.25 mg/mL matrix gel for 72 hours. The supernatant was then refreshed with PHH culture medium containing different concentrations of testing compounds for two times with 72-hour interval. At the end of treatment, the supernatant was collected for viral markers measurements, including HBsAg, HBeAg, HBV DNA and cytotoxicity. HBsAg and HBeAg were detected using alphalisa method using their specific antibodies. For HBV DNA detection, HBV DNA Quantitative Fluorescence Diagnostic Kit (Sansure Biotech Inc.) was used following the manufacture's protocol. Cytotoxicity was determined using Cell Counting Kit-8 (CCK8, Dojindo Molecular Technologies, Inc.).
(§2) The compounds of the present invention were tested for their capacity to inhibit HBsAg and HBeAg as described herein.

[2] = test system: HBeAg; test: PHH HBV natural infection assay, HBeAg (alphalisa); conditions: Hepatitis B virus, Hepatocyte, 72 h, read-out: HbeAg IC50
Experimental: as §1, §2

[3] = Cytotoxicity in PHH natural infection assay (Cell Counting Kit-8); conditions: HBV-infected primary human hepatocytes, CCK8
Experimental: as §1

Row | Compound | IC50 [1] [µM] | IC50 [2] [µM] | CC50 at 144 h [3] [µM]
1 | O=C(NC12CCC(c3nc4cc(Cl)ccc4o3)(CC1)CC2)c1ccc(C(F)(F)F)o1 [Example 47, N-[4-(5-chloro-1,3-benzoxazol-2-yl)-1-bicyclo[2.2.2]octanyl]-5-(trifluoromethyl)furan-2-carboxamide] | 7.69 | 3.91 | > 100
2 | O=C(NC12CCC(c3nc4cc(Cl)ccc4o3)(CC1)CC2)C1CC2(C1)CS(=O)(=O)C2 [Example 48, N-[4-(5-chloro-1,3-benzoxazol-2-yl)-1-bicyclo[2.2.2]octanyl]-2,2-dioxo-2lambda6-thiaspiro[3.3]heptane-6-carboxamide] | 1.71 | 1.03 | > 100
3 | O=C(NC12CCC(c3nc4cc(Cl)ccc4o3)(CC1)CC2)C1CCCS1(=O)=O (stereo not drawn) [Example 49, N-[4-(5-chloro-1,3-benzoxazol-2-yl)-1-bicyclo[2.2.2]octanyl]-1,1-dioxo-thiolane-2-carboxamide] | 2.73 | 1.27 | > 100
4 | O=C(NC12CCC(c3nc4cc(Cl)ccc4o3)(CC1)CC2)C1CCS(=O)(=O)C1 (stereo not drawn) [Example 50, N-[4-(5-chloro-1,3-benzoxazol-2-yl)-1-bicyclo[2.2.2]octanyl]-1,1-dioxo-thiolane-3-carboxamide] | 4.14 | 5.11 | > 100
5 | CC1(C(=O)NC23CCC(c4nc5cc(Cl)ccc5o4)(CC2)CC3)CCS(=O)(=O)C1 (stereo not drawn) [Example 51, N-[4-(5-chloro-1,3-benzoxazol-2-yl)-1-bicyclo[2.2.2]octanyl]-3-methyl-1,1-dioxo-thiolane-3-carboxamide] | 9.21 | 4.87 | > 100
6 | O=C(NC12CCC(c3nc4cc(Cl)ccc4o3)(CC1)CC2)C1CCCS(=O)(=O)C1 (stereo not drawn) [Example 52, N-[4-(5-chloro-1,3-benzoxazol-2-yl)-1-bicyclo[2.2.2]octanyl]-1,1-dioxo-thiane-3-carboxamide] | 2.76 | 1.06 | > 100
7 | O=C(CC1CCCS1(=O)=O)NC12CCC(c3nc4cc(Cl)ccc4o3)(CC1)CC2 (stereo not drawn) [Example 53, N-[4-(5-chloro-1,3-benzoxazol-2-yl)-1-bicyclo[2.2.2]octanyl]-2-(1,1-dioxothiolan-2-yl)acetamide] | 2.28 | 1.87 | > 100
8 | O=C(CC1CCCS(=O)(=O)C1)NC12CCC(c3nc4cc(Cl)ccc4o3)(CC1)CC2 (stereo not drawn) [Example 54, N-[4-(5-chloro-1,3-benzoxazol-2-yl)-1-bicyclo[2.2.2]octanyl]-2-(1,1-dioxothian-3-yl)acetamide] | 3.38 | 3.22 | 43.9
9 | O=C(CN1CCCCS1(=O)=O)NC12CCC(c3nc4cc(Cl)ccc4o3)(CC1)CC2 [Example 55, N-[4-(5-chloro-1,3-benzoxazol-2-yl)-1-bicyclo[2.2.2]octanyl]-2-(1,1-dioxothiazinan-2-yl)acetamide] | 2.06 | 0.888 | > 100
